BigSolDB 2.1

Nc1nc(Cl)c2[nH]cnc2n1
Conditions	solubility (mole fraction)
in 1,4-dioxane, 288.15 K	7.48e-05
in 1,4-dioxane, 293.15 K	9.16e-05
in 1,4-dioxane, 298.15 K	0.000112
in 1,4-dioxane, 303.15 K	0.000135
in 1,4-dioxane, 308.15 K	0.000162
in 1,4-dioxane, 313.15 K	0.000195
in 1,4-dioxane, 318.15 K	0.000236
in 1,4-dioxane, 323.15 K	0.000277
in 1,4-dioxane, 328.15 K	0.000325
in 1,4-dioxane, 333.15 K	0.000396
in 2-butanone, 278.15 K	0.000178
in 2-butanone, 283.15 K	0.000214
in 2-butanone, 288.15 K	0.000256
in 2-butanone, 293.15 K	0.000303
in 2-butanone, 298.15 K	0.000352
in 2-butanone, 303.15 K	0.000408
in 2-butanone, 308.15 K	0.000476
in 2-butanone, 313.15 K	0.000547
in 2-butanone, 318.15 K	0.000626
in 2-butanone, 323.15 K	0.000723
in 2-butanone, 328.15 K	0.00084
in 2-butanone, 333.15 K	0.001
in DMF, 278.15 K	0.00226
in DMF, 283.15 K	0.00266
in DMF, 288.15 K	0.00313
in DMF, 293.15 K	0.00366
in DMF, 298.15 K	0.00427
in DMF, 303.15 K	0.00497
in DMF, 308.15 K	0.00577
in DMF, 313.15 K	0.00668
in DMF, 318.15 K	0.00771
in DMF, 323.15 K	0.00888
in DMF, 328.15 K	0.01
in DMF, 333.15 K	0.0121
in DMSO, 298.15 K	0.0108
in DMSO, 303.15 K	0.0127
in DMSO, 308.15 K	0.015
in DMSO, 313.15 K	0.0172
in DMSO, 318.15 K	0.0204
in DMSO, 323.15 K	0.024
in DMSO, 328.15 K	0.0284
in DMSO, 333.15 K	0.0331
in ethanol, 278.15 K	4.39e-05
in ethanol, 283.15 K	5.42e-05
in ethanol, 288.15 K	6.87e-05
in ethanol, 293.15 K	8.56e-05
in ethanol, 298.15 K	0.000105
in ethanol, 303.15 K	0.000125
in ethanol, 308.15 K	0.000153
in ethanol, 313.15 K	0.000184
in ethanol, 318.15 K	0.000218
in ethanol, 323.15 K	0.000258
in ethanol, 328.15 K	0.000303
in ethanol, 333.15 K	0.000357
in ethylene glycol, 278.15 K	0.000549
in ethylene glycol, 283.15 K	0.000634
in ethylene glycol, 288.15 K	0.000719
in ethylene glycol, 293.15 K	0.000823
in ethylene glycol, 298.15 K	0.000923
in ethylene glycol, 303.15 K	0.00104
in ethylene glycol, 308.15 K	0.00117
in ethylene glycol, 313.15 K	0.0013
in ethylene glycol, 318.15 K	0.00145
in ethylene glycol, 323.15 K	0.0016
in ethylene glycol, 328.15 K	0.00177
in ethylene glycol, 333.15 K	0.00198
in isobutanol, 278.15 K	8.8e-05
in isobutanol, 283.15 K	0.000106
in isobutanol, 288.15 K	0.000131
in isobutanol, 293.15 K	0.000155
in isobutanol, 298.15 K	0.00018
in isobutanol, 303.15 K	0.000211
in isobutanol, 308.15 K	0.000244
in isobutanol, 313.15 K	0.00028
in isobutanol, 318.15 K	0.000325
in isobutanol, 323.15 K	0.000373
in isobutanol, 328.15 K	0.000433
in isobutanol, 333.15 K	0.000499
in isopropanol, 278.15 K	5.99e-05
in isopropanol, 283.15 K	7.43e-05
in isopropanol, 288.15 K	9.38e-05
in isopropanol, 293.15 K	0.000114
in isopropanol, 298.15 K	0.000137
in isopropanol, 303.15 K	0.000165
in isopropanol, 308.15 K	0.000195
in isopropanol, 313.15 K	0.00023
in isopropanol, 318.15 K	0.000266
in isopropanol, 323.15 K	0.000314
in isopropanol, 328.15 K	0.000363
in isopropanol, 333.15 K	0.000431
in methanol, 278.15 K	3.09e-05
in methanol, 283.15 K	3.96e-05
in methanol, 288.15 K	4.94e-05
in methanol, 293.15 K	6.14e-05
in methanol, 298.15 K	7.53e-05
in methanol, 303.15 K	9.43e-05
in methanol, 308.15 K	0.000112
in methanol, 313.15 K	0.000137
in methanol, 318.15 K	0.000168
in methanol, 323.15 K	0.000198
in methanol, 328.15 K	0.000233
in methanol, 333.15 K	0.000279
in n-butanol, 278.15 K	0.000135
in n-butanol, 283.15 K	0.000159
in n-butanol, 288.15 K	0.000185
in n-butanol, 293.15 K	0.00021
in n-butanol, 298.15 K	0.000242
in n-butanol, 303.15 K	0.000276
in n-butanol, 308.15 K	0.000316
in n-butanol, 313.15 K	0.000358
in n-butanol, 318.15 K	0.000409
in n-butanol, 323.15 K	0.000461
in n-butanol, 328.15 K	0.000515
in n-butanol, 333.15 K	0.000586
in n-propanol, 278.15 K	0.000103
in n-propanol, 283.15 K	0.000122
in n-propanol, 288.15 K	0.000149
in n-propanol, 293.15 K	0.000174
in n-propanol, 298.15 K	0.000202
in n-propanol, 303.15 K	0.000234
in n-propanol, 308.15 K	0.000274
in n-propanol, 313.15 K	0.000314
in n-propanol, 318.15 K	0.000362
in n-propanol, 323.15 K	0.00042
in n-propanol, 328.15 K	0.000472
in n-propanol, 333.15 K	0.000539
in water, 278.15 K	3.28e-06
in water, 283.15 K	4.66e-06
in water, 288.15 K	6.53e-06
in water, 293.15 K	9.04e-06
in water, 298.15 K	1.24e-05
in water, 303.15 K	1.68e-05
in water, 308.15 K	2.26e-05
in water, 313.15 K	3e-05
in water, 318.15 K	3.96e-05
in water, 323.15 K	5.17e-05
in water, 328.15 K	6.7e-05
in water, 333.15 K	8.62e-05
